ChEMBL document CHEMBL1158930, “3'-Formyl-2',4',6'-trihydroxy-5'-methyldihydrochalcone, a Prospective New Agrochemical from Psidium acutangulum” (1990)

Columns and labels:
Format in all cases: functional
[1] = system: Heliothis virescens; experiment: Antifeedant activity in Heliothis virescens at 24.8 ug/cm'2 after 2 days relative to control
[2] = system: Heliothis virescens; experiment: Antifeedant activity in Heliothis virescens at 76.7 ug/cm'2 after 4 days relative to control
[3] = system: Heliothis virescens; experiment: Antifeedant activity in Heliothis virescens at 24.8 ug/cm'2 after 4 days relative to control
[4] = system: Heliothis virescens; experiment: Antifeedant activity in Heliothis virescens at 0.25 ug/cm'2 relative to dithane
[5] = system: Heliothis virescens; experiment: Antifeedant activity in Heliothis virescens at 247.5 ug/cm'2 after 6 days relative to control
[6] = system: Heliothis virescens; experiment: Antifeedant activity in Heliothis virescens at 76.7 ug/cm'2 after 6 days relative to control
[7] = system: Heliothis virescens; experiment: Antifeedant activity in Heliothis virescens at 7.7 ug/cm'2 after 6 days relative to control
[8] = system: Heliothis virescens; experiment: Antifeedant activity in Heliothis virescens at 247.5 ug/cm'2 after 2 days relative to control
[9] = system: Heliothis virescens; experiment: Antifeedant activity in Heliothis virescens at 247.5 ug/cm'2 after 4 days relative to control
[10] = system: Heliothis virescens; experiment: Antifeedant activity in Heliothis virescens at 7.7 ug/cm'2 after 4 days relative to control
[11] = system: Heliothis virescens; experiment: Antifeedant activity in Heliothis virescens at 76.7 ug/cm'2 after 2 days relative to control
[12] = system: Heliothis virescens; experiment: Antifeedant activity in Heliothis virescens at 24.8 ug/cm'2 after 6 days relative to control
[13] = system: Heliothis virescens; experiment: Antifeedant activity in Heliothis virescens at 7.7 ug/cm'2 after 2 days relative to control

## Cc1c(O)c(C=O)c(O)c(C(=O)CCc2ccccc2)c1O
[1]
  Activity: 90%
[2]
  Activity: 60%
[3]
  Activity: 60%
[4]
  Activity: 90%
[5]
  Activity: 60%
[6]
  Activity: 60%
[7]
  Activity: 30%
[8]
  Activity: 90%
[9]
  Activity: 60%
[10]
  Activity: 60%
[11]
  Activity: 90%
[12]
  Activity: 30%
[13]
  Activity: 60%
